From US20100093760A1, “METHODS FOR IDENTIFYING COMPOUNDS THAT MODULATE CELL SIGNALING AND METHODS EMPLOYING SUCH COMPOUNDS” (The General Hospital Corporation, priority 2006, published 2010)
Entries after “also recorded” stand apart in the source; their conditions may differ.

How the values were obtained:
[1] = system: TGF-β1-mediated activation of SMAD2; test: TGF-β1-mediated SMAD2 phosphorylation in PASMCs; format: cell-based, murine
Procedure: Wild-type and BMPR-II-deficient PASMC were isolated as previously described (Yu et al., J. Biol. Chem. 280:24443-24450, 2005), and cultured in RPMI medium (Invitrogen) supplemented with 10% FBS. C2C12 cells (American Type Culture Collection, Manassas, Va.) were cultured in DMEM supplemented with glutamine and 10% FBS. HepG2 cells and Hep3B cells (ATCC) were cultured in Minimal Essential Alpha Medium with L-glutamine (α-MEM, Invitrogen) containing 10% FBS. For studies of SMAD activation in vitro, PASMC were incubated in 0.5% FCS RPMI for 24 hours, followed by preincubation with drug compounds, noggin, or vehicle for 30 minutes, followed the addition of recombinant BMPs 2, 4, 6, or 7, or TGF-β1 or Activin A (R&D Systems, Minneapolis, Minn.) for 30 minutes.
(§1) Cell extracts or tissues were mechanically homogenized in SDS-lysis buffer (62.5 mM Tris-HCl (pH 6.8), 2% SDS, 10% glycerol, 50 mM DTT, 0.01% bromophenol blue); separated by SDS-PAGE; immunoblotted with anti-phospho-SMAD1/5/8, anti-phospho-SMAD2 (Cell Signaling, Beverly, Mass.), or anti-α-tubulin (Upstate/Millipore, Billerica, Mass.) Abs; and visualized using ECL Plus (GE Healthcare, Piscataway, N.J.). Levels of immunoreactive proteins were quantitated by ImageQuant software on a Storm phosphorimager (GE Healthcare).

[2] = system: hepatic SMAD1/5/8 phosphorylation; test: Iron-dextran challenge: hepatic SMAD1/5/8 phosphorylation in mice; format: in vivo, C57BL/6 mice; settings: 10 mg/kg co-injected with iron-dextran, intravenous, 1 hour
caALK6 = test: Constitutively-active ALK6 transfection: phospho-SMAD1/5/8 immunoblot and Id1 promoter (BRE-Luc); format: cell-based
Procedure: as §1
(§2) Murine PASMCs grown to 50% confluence in 6-well plates were transiently transfected with 0.3 μg Id1 promoter luciferase reporter construct (BRE-Luc, Dr. Peter ten Dijke, Leiden University Medical Center, Netherlands (Korchynskyi et al., J. Biol. Chem. 277:4883-4891, 2002)) in combination with 0.6 μg plasmids expressing constitutively-active forms of BMP type I receptors (caALK2, caALK3, or caALK6, kindly provided by Dr. Kohei Miyazono, University of Tokyo, Japan (Fujii et al., Mol. Biol. Cell 10:3801-3813, 1999)), using Fugene6 (Roche). To assess Activin and […] type I receptor function, PASMCs were transiently transfected with 0.3 μg PAI-1 promoter luciferase reporter construct (CAGA-Luc, Dr. Peter ten Dijke (Dennler et al., Embo J. 17:3091-3100, 1998)) in combination with 0.6 μg plasmids expressing constitutively active forms of type I receptors (caALK4, caALK5, and caALK7, also provided by Dr. Kohei Miyazono (Okadome et al., J. Biol. Chem. 271:21687-21690, 1996; Shimizu et al., Genes Cells 3:125-134, 1998)). For both reporters, 0.2 μg pRL-TK Renilla luciferase (Promega) was used to control for transfection efficiency. PASMCs were incubated with Compound C/Dorsomorphin (4-10 μM) or vehicle starting one hour after transfection, for 24 hours or completion of the experiment. Cell extracts were harvested, and relative promoter activity quantitated by the ratio of firefly to Renilla luciferase activity using the dual luciferase assay kit (Promega). […] Hepcidin promoter activity was measured by luciferase assay as above.

hepcidin promoter = test: Hepcidin promoter luciferase reporter assay (Hep-Luc) in Hep3B cells; format: cell-based
Procedure: as §2, with “PASMCs were incubated with Compound C/Dorsomorphin (4-10 μM) or vehicle starting one hour after transfection, for 24 hours or completion of the experiment.” left out

[3] = system: zebrafish vascular development (KDR); test: Zebrafish vascular development (effects of KDR inhibition); format: in vivo; settings: at the doses used for dorsalization
[4] = mice, 10 to 30 mg/kg each day (Kim et al. 2004); cited from earlier work
AMP kinase = settings: Zhou et al. 2001; cited from earlier work
[5] = system: zebrafish embryos (eve1, pax2.1, krox20, MyoD); test: Wholemount zebrafish in situ hybridization of dorsal and ventral markers; format: in vivo
Procedure: In situ hybridization was performed as previously described (Westerfield, The Zebrafish Book, (University of Oregon Press, Eugene, Oreg., 1993)). Zebrafish krox20, pax2.1, and MyoD probes were produced as previously described (Weinberg et al., Development 122:271-280, 1996).

zebrafish hepcidin mRNA = test: Iron-dextran challenge: hepatic hepcidin mRNA in adult zebrafish; format: in vivo; settings: 23 μg/g co-injected with iron-dextran, 3 hours
caALK7 = test: Constitutively-active ALK7 PAI-1 promoter reporter (CAGA-Luc); format: cell-based; settings: PASMCs, up to 20 μM
Procedure: as §2, with “PASMCs were incubated with Compound C/Dorsomorphin (4-10 μM) or vehicle starting one hour after transfection, for 24 hours or completion of the experiment.” left out

zebrafish = test: Zebrafish bone mineralization (calcein staining); format: in vivo; settings: at 10 dpf
Procedure: At 5 dpf and onward, larvae were fed for 1 hour every other day. […] At 10 dpf, larvae were immersed in calcein (0.2%) for 30 minutes, as previously described (Du et al., Dev. Biol. 238:239-246, 2001). […] Calcified skeletal structures were visualized by green fluorescence and the number of vertebral bodies counted.

[6] = 6-somite stage, treatment at 1 hpf

c1cc(-c2cnn3cc(-c4ccc(OCCN5CCCCC5)cc4)cnc23)ccn1 [Compound C/Dorsomorphin]
effect on the TGF-β signaling pathway ([1]; FIG. 7): does not affect | effect on TGF-β1-mediated activation of SMAD2 ([1]; PASMCs, TGF-β1 0.5 ng/ml, 0.1-20 μM, 30 minutes): did not inhibit | effect on iron-mediated increase in hepatic SMAD1/5/8 phosphorylation [2]: abolished; also recorded: did not exhibit an increase | effect on caALK6-induced increase in phospho-SMAD1/5/8 (caALK6; BMPR-II-deficient PASMCs, 10 μM, immunoblot): inhibited | effect on caALK6-mediated Id1 promoter activity (BRE-Luc) (caALK6; BMPR-II-deficient PASMCs, 0.5-20 μM): inhibited; also recorded: decreased | selectivity among constitutively-active BMP type I receptors (caALK6; BRE-Luc, FIG. 21h): apparent selectivity for caALK2 and caALK3 over caALK6 | effect on HJV-induced hepcidin promoter activity (Hep-Luc) (hepcidin promoter; Hep3B cells transfected with HJV): effectively abrogated; also recorded: blocked | effect on BMP2-induced hepcidin promoter activity (Hep-Luc) (hepcidin promoter; Hep3B cells, 10 μM, BMP2 25 ng/ml): effectively abrogated | effects of KDR inhibition on vascular development (intersomitic blood vessels) [3]: did not observe any of the known effects of KDR inhibition | tolerability [4]: without obvious toxicity | IC50 (AMP kinase): 15 to 30 µM | expression of Krox20 (rhombomeres 3 and 5) and MyoD [5, 6]: induced lateral expansion; also recorded: expand laterally | expression of dorsal marker pax2.1 [5, 6]: induced expansion; also recorded: expands laterally | expression of ventral marker eve1 ([5]; 18-somite stage, 10 μM at 1 hpf): reduced; also recorded: do not exhibit eve1 expression in the distal tail | effect on iron-dextran-induced hepatic hepcidin mRNA (zebrafish hepcidin mRNA): inhibited the increase; also recorded: not significantly different from dextran-treated fish | effect on caALK7-mediated PAI-1 promoter activity (CAGA-Luc) (caALK7): did not inhibit; also recorded: not decreased | number of mineralized vertebrae (zebrafish; 4 μM from 24 hpf, P<0.001 vs DMSO): significant decrease | effect on vertebral and craniofacial bone calcification (calcein staining) (zebrafish; 1-4 μM from 24 hpf): inhibition of bone mineralization; also recorded: disrupts vertebral bone mineralization; also recorded: disrupts craniofacial bone mineralization; also recorded: inhibits bone mineralization; also recorded: decrease in vertebral segment and craniofacial bone calcification; also recorded: reduced vertebral segment and craniofacial bone calcification | viability and gross morphology (zebrafish; 1-4 μM from 24 hpf): morphologically and functionally normal; also recorded: without disrupting overall morphology; also recorded: viable fish at 10 dpf without evidence of dorsalization; also recorded: morphologically grossly normal and viable
